# Active and inactive are the calls of the source. No cut-off for these calls is given here.
# Key:
# Mucor [1] = assay: Antifungal activity against Mucor at 500 ppm after 72 to 96 hr by disk diffusion method; format: functional; conditions: read-out: IZ
# Aspergillus flavus [2] = assay: Antifungal activity against Aspergillus flavus at 500 ppm after 72 to 96 hr by disk diffusion method; format: functional; conditions: read-out: IZ
# Nannizzia gypsea [3] = assay: Antifungal activity against Microsporum gypseum at 200 ppm after 72 to 96 hr by disk diffusion method; format: functional; conditions: read-out: IZ
# Salmonella typhi [4] = assay: Antibacterial activity against Salmonella enterica subsp. enterica serovar Typhi at 200 ppm after 24 hr by disk diffusion method; format: functional; conditions: read-out: IZ
# Vibrio cholerae [5] = assay: Antibacterial activity against Vibrio cholerae at 500 ppm after 24 hr by disk diffusion method; format: functional; conditions: read-out: IZ
# Streptococcus [6] = assay: Antibacterial activity against beta-hemolytic Streptococcus at 200 ppm after 24 hr by disk diffusion method; format: functional; conditions: read-out: IZ
# Pseudomonas [7] = assay: Antibacterial activity against Pseudomonas at 100 ppm after 24 hr by disk diffusion method; format: functional
# Aspergillus flavus [8] = assay: Antifungal activity against Aspergillus flavus at 100 ppm after 72 to 96 hr by disk diffusion method; format: functional; conditions: read-out: IZ
# Salmonella typhi [9] = assay: Antibacterial activity against Salmonella enterica subsp. enterica serovar Typhi at 100 ppm after 24 hr by disk diffusion method; format: functional
# Pseudomonas [10] = assay: Antibacterial activity against Pseudomonas at 500 ppm after 24 hr by disk diffusion method; format: functional; conditions: read-out: IZ
# Streptococcus [11] = assay: Antibacterial activity against beta-hemolytic Streptococcus at 500 ppm after 24 hr by disk diffusion method; format: functional; conditions: read-out: IZ
# Rhizopus [12] = assay: Antifungal activity against Rhizopus at 200 ppm after 72 to 96 hr by disk diffusion method; format: functional; conditions: read-out: IZ
# Klebsiella pneumoniae [13] = assay: Antibacterial activity against Klebsiella pneumoniae at 200 ppm after 24 hr by disk diffusion method; format: functional; conditions: read-out: IZ
# Escherichia coli [14] = assay: Antibacterial activity against Escherichia coli at 500 ppm after 24 hr by disk diffusion method; format: functional; conditions: read-out: IZ
# Shigella flexneri [15] = assay: Antibacterial activity against Shigella flexneri at 200 ppm after 24 hr by disk diffusion method; format: functional; conditions: read-out: IZ
# Vibrio cholerae [16] = assay: Antibacterial activity against Vibrio cholerae at 200 ppm after 24 hr by disk diffusion method; format: functional; conditions: read-out: IZ
# Nannizzia gypsea [17] = assay: Antifungal activity against Microsporum gypseum at 100 ppm after 72 to 96 hr by disk diffusion method; format: functional; conditions: read-out: IZ
# Aspergillus flavus [18] = assay: Antifungal activity against Aspergillus flavus at 200 ppm after 72 to 96 hr by disk diffusion method; format: functional; conditions: read-out: IZ
# Pseudomonas [19] = assay: Antibacterial activity against Pseudomonas at 200 ppm after 24 hr by disk diffusion method; format: functional; conditions: read-out: IZ
# Rhizopus [20] = assay: Antifungal activity against Rhizopus at 100 ppm after 72 to 96 hr by disk diffusion method; format: functional
# Mucor [21] = assay: Antifungal activity against Mucor at 200 ppm after 72 to 96 hr by disk diffusion method; format: functional; conditions: read-out: IZ
# Shigella flexneri [22] = assay: Antibacterial activity against Shigella flexneri at 500 ppm after 24 hr by disk diffusion method; format: functional; conditions: read-out: IZ
# Staphylococcus aureus [23] = assay: Antibacterial activity against Staphylococcus aureus at 500 ppm after 24 hr by disk diffusion method; format: functional; conditions: read-out: IZ
# Rhizopus [24] = assay: Antifungal activity against Rhizopus at 500 ppm after 72 to 96 hr by disk diffusion method; format: functional; conditions: read-out: IZ
# Salmonella typhi [25] = assay: Antibacterial activity against Salmonella enterica subsp. enterica serovar Typhi at 500 ppm after 24 hr by disk diffusion method; format: functional; conditions: read-out: IZ
# Staphylococcus aureus [26] = assay: Antibacterial activity against Staphylococcus aureus at 200 ppm after 24 hr by disk diffusion method; format: functional; conditions: read-out: IZ
# Streptococcus [27] = assay: Antibacterial activity against beta-hemolytic Streptococcus at 100 ppm after 24 hr by disk diffusion method; format: functional, organism-based
# Klebsiella pneumoniae [28] = assay: Antibacterial activity against Klebsiella pneumoniae at 100 ppm after 24 hr by disk diffusion method; format: functional; conditions: read-out: IZ
# Vibrio cholerae [29] = assay: Antibacterial activity against Vibrio cholerae at 100 ppm after 24 hr by disk diffusion method; format: functional; conditions: read-out: IZ
# Escherichia coli [30] = assay: Antibacterial activity against Escherichia coli at 200 ppm after 24 hr by disk diffusion method; format: functional; conditions: read-out: IZ
# Shigella flexneri [31] = assay: Antibacterial activity against Shigella flexneri at 100 ppm after 24 hr by disk diffusion method; format: functional; conditions: read-out: IZ
# Escherichia coli [32] = assay: Antibacterial activity against Escherichia coli at 100 ppm after 24 hr by disk diffusion method; format: functional, organism-based
# Nannizzia gypsea [33] = assay: Antifungal activity against Microsporum gypseum at 500 ppm after 72 to 96 hr by disk diffusion method; format: functional; conditions: read-out: IZ
# Klebsiella pneumoniae [34] = assay: Antibacterial activity against Klebsiella pneumoniae at 500 ppm after 24 hr by disk diffusion method; format: functional; conditions: read-out: IZ
# Staphylococcus aureus [35] = assay: Antibacterial activity against Staphylococcus aureus at 100 ppm after 24 hr by disk diffusion method; format: functional
# Mucor [36] = assay: Antifungal activity against Mucor at 100 ppm after 72 to 96 hr by disk diffusion method; format: functional
# Klebsiella pneumoniae [37] = assay: Antibacterial activity against Klebsiella pneumoniae at 5 ug/disk after 24 hr by disk diffusion method; conditions: read-out: IZ
# Vibrio cholerae [38] = assay: Antibacterial activity against Vibrio cholerae at 5 ug/disc after 24 hr by disk diffusion method; format: functional; conditions: read-out: IZ
# Streptococcus [39] = assay: Antibacterial activity against beta-hemolytic Streptococcus at 5 ug/disk after 24 hr by disk diffusion method; format: functional; conditions: read-out: IZ
# Salmonella typhi [40] = assay: Antibacterial activity against Salmonella enterica subsp. enterica serovar Typhi at 5 ug/disk after 24 hr by disk diffusion method; format: functional; conditions: read-out: IZ
# Shigella flexneri [41] = assay: Antibacterial activity against Shigella flexneri at 5 ug/disc after 24 hr by disk diffusion method; format: functional; conditions: read-out: IZ
# Staphylococcus aureus [42] = assay: Antibacterial activity against Staphylococcus aureus at 5 ug/disc after 24 hr by disk diffusion method; conditions: read-out: IZ
# Pseudomonas [43] = assay: Antibacterial activity against Pseudomonas at 5 ug/disk after 24 hr by disk diffusion method; format: functional; conditions: read-out: IZ
SMILES,zone of inhibition at 500 ppm (Mucor [1]) [mm],zone of inhibition at 500 ppm (Aspergillus flavus [2]) [mm],zone of inhibition at 200 ppm (Nannizzia gypsea [3]) [mm],zone of inhibition at 200 ppm (Salmonella typhi [4]) [mm],zone of inhibition at 500 ppm (Vibrio cholerae [5]) [mm],zone of inhibition at 200 ppm (Streptococcus [6]) [mm],inhibition zone (IZ) (Pseudomonas [7]),zone of inhibition at 100 ppm (Aspergillus flavus [8]) [mm],zone of inhibition at 500 ppm (Pseudomonas [10]) [mm],zone of inhibition at 500 ppm (Streptococcus [11]) [mm],zone of inhibition at 200 ppm (Rhizopus [12]) [mm],zone of inhibition at 200 ppm (Klebsiella pneumoniae [13]) [mm],zone of inhibition at 500 ppm (Escherichia coli [14]) [mm],zone of inhibition at 200 ppm (Shigella flexneri [15]) [mm],zone of inhibition at 200 ppm (Vibrio cholerae [16]) [mm],zone of inhibition at 100 ppm (Nannizzia gypsea [17]) [mm],zone of inhibition at 200 ppm (Aspergillus flavus [18]) [mm],zone of inhibition at 200 ppm (Pseudomonas [19]) [mm],zone of inhibition at 200 ppm (Mucor [21]) [mm],zone of inhibition at 500 ppm (Shigella flexneri [22]) [mm],also measured
Cc1ccc(C2NC(c3ccc(C)cc3)C(C)(C)c3nnsc32)cc1 (centres undefined),17,12,22,12,17,17,inactive,12,12,30,17,17,17,17,17,17,12,12,17,17,zone of inhibition at 100 ppm (Salmonella typhi [9]; read-out: IZ): 12 mm; zone of inhibition at 100 ppm (Rhizopus [20]; read-out: IZ): 12 mm; zone of inhibition at 500 ppm (Staphylococcus aureus [23]): 30 mm; zone of inhibition at 500 ppm (Rhizopus [24]): 22 mm; zone of inhibition at 500 ppm (Salmonella typhi [25]): 12 mm; zone of inhibition at 200 ppm (Staphylococcus aureus [26]): 22 mm; inhibition zone (IZ) (Streptococcus [27]): inactive; zone of inhibition at 100 ppm (Klebsiella pneumoniae [28]): 17 mm; zone of inhibition at 100 ppm (Vibrio cholerae [29]): 12 mm; zone of inhibition at 200 ppm (Escherichia coli [30]): 12 mm; zone of inhibition at 100 ppm (Shigella flexneri [31]): 12 mm; inhibition zone (IZ) (Escherichia coli [32]): inactive; zone of inhibition at 500 ppm (Nannizzia gypsea [33]): 30 mm; zone of inhibition at 500 ppm (Klebsiella pneumoniae [34]): 22 mm; inhibition zone (IZ) (Staphylococcus aureus [35]): inactive; inhibition zone (IZ) (Mucor [36]): inactive
O=C(O)c1cn(C2CC2)c2cc(N3CCNCC3)c(F)cc2c1=O [CIPROFLOXACIN],,,,,,,,,,,,,,,,,,,,,zone of inhibition at 5 µg/disc (Klebsiella pneumoniae [37]): 26 mm; zone of inhibition at 5 µg/disc (Vibrio cholerae [38]): 23 mm; zone of inhibition at 5 µg/disc (Streptococcus [39]): 28 mm; zone of inhibition at 5 µg/disc (Salmonella typhi [40]): 22 mm; zone of inhibition at 5 µg/disc (Shigella flexneri [41]): 23 mm; zone of inhibition at 5 µg/disc (Staphylococcus aureus [42]): 25 mm; zone of inhibition at 5 µg/disc (Pseudomonas [43]): 23 mm
CC1(C)c2nnsc2C(c2ccc(Cl)cc2)NC1c1ccc(Cl)cc1 (centres undefined),12,17,17,17,12,12,inactive,12,12,30,12,17,17,12,12,12,12,12,12,12,inhibition zone (IZ) (Salmonella typhi [9]): inactive; inhibition zone (IZ) (Rhizopus [20]): inactive; zone of inhibition at 500 ppm (Staphylococcus aureus [23]): 30 mm; zone of inhibition at 500 ppm (Rhizopus [24]): 22 mm; zone of inhibition at 500 ppm (Salmonella typhi [25]): 17 mm; zone of inhibition at 200 ppm (Staphylococcus aureus [26]): 22 mm; inhibition zone (IZ) (Streptococcus [27]): inactive; zone of inhibition at 100 ppm (Klebsiella pneumoniae [28]): 12 mm; zone of inhibition at 100 ppm (Vibrio cholerae [29]): 12 mm; zone of inhibition at 200 ppm (Escherichia coli [30]): 12 mm; zone of inhibition at 100 ppm (Shigella flexneri [31]): 12 mm; inhibition zone (IZ) (Escherichia coli [32]): inactive; zone of inhibition at 500 ppm (Nannizzia gypsea [33]): 22 mm; zone of inhibition at 500 ppm (Klebsiella pneumoniae [34]): 22 mm; zone of inhibition at 100 ppm (Staphylococcus aureus [35]; read-out: IZ): 12 mm; inhibition zone (IZ) (Mucor [36]): inactive
